Assay results taken from paper PMC6470795 (Molecules, 2019).
Where two headings read alike, the source gives them in different places.

Tests used:
[1] = tested on: hepatic carcinoma 97H cells; test: MTT antiproliferative assay, 97H cells; format: cell-based, human
Source text: (§3) The cell lines, 97H (human liver cancer cell), Pc9 (human non-small cell lung cancer), HELA (human epithelial cervical cancer cell line), SJSA1 (human osteosarcoma cells), LO2 (human normal liver cells), and HLF (human embryonic lung fibroblast), used in this study were purchased from the Guangzhou ginny ou Biotechnology Co. Ltd. (Guangzhou, China). Cell lines were cultivated in Dulbecco’s Modified Eagle Medium (DMEM) containing 10% (v/v) heat-inactivated fetal bovine serum (FBS), 100 units/mL penicillin, and 100 μg/mL streptomycin.
(§4) For the cytotoxicity assay, the cells grown in the logarithmic phase were seeded into 96-well plates (5 × 10^3 cells/well) for 24 h, and then exposed to different concentrations of the test compounds for 48 h. After the attached cells had been incubated with 5 mg/mL MTT (Sigma, St. Louis, MO, USA) for another 4 h, the suspension was discarded and subsequently the dark blue crystals (formazan) were solubilized in dimethyl sulfoxide (DMSO). Then, the absorbance was measured at 570 nm using a multifunction microplate reader (Molecular Devices, Flex Station 3) (Thermo Fisher Scientific, San Jose, CA, USA), and each experiment was performed at least in triplicate.

[2] = tested on: Pc9 (human non-small cell lung cancer cells); test: MTT antiproliferative assay, Pc9 cells; format: cell-based; conditions: read-out: IC50 Pc9
Source text: as §3, §4

[3] = tested on: Hela (human epithelial cervical cancer cells); test: MTT antiproliferative assay, Hela cells; format: cell-based; conditions: 48 h, read-out: IC50 Hela
Source text: as §3, §4

[4] = tested on: SJSA1 (human osteosarcoma cells); test: MTT antiproliferative assay, SJSA1 cells; format: cell-based; conditions: read-out: IC50 SJSA1
Source text: as §3, §4

[5] = tested on: LO2 (human normal liver cells); test: MTT assay, LO2 normal cells; format: cell-based; conditions: 48 h, read-out: IC50 LO2
Source text: as §3, §4

[6] = tested on: HLF (human embryonic lung fibroblast cells); test: MTT assay, HLF normal cells; format: cell-based; conditions: 48 h, read-out: IC50 HLF
Source text: as §3, §4

c-Met enzyme = target: T1, c-Met enzyme (Homo sapiens, UniProt P08581); test: Kinase inhibition assay; format: biochemical
T1 construct: purchased Invitrogen
T1 sequence (P08581 25-1390): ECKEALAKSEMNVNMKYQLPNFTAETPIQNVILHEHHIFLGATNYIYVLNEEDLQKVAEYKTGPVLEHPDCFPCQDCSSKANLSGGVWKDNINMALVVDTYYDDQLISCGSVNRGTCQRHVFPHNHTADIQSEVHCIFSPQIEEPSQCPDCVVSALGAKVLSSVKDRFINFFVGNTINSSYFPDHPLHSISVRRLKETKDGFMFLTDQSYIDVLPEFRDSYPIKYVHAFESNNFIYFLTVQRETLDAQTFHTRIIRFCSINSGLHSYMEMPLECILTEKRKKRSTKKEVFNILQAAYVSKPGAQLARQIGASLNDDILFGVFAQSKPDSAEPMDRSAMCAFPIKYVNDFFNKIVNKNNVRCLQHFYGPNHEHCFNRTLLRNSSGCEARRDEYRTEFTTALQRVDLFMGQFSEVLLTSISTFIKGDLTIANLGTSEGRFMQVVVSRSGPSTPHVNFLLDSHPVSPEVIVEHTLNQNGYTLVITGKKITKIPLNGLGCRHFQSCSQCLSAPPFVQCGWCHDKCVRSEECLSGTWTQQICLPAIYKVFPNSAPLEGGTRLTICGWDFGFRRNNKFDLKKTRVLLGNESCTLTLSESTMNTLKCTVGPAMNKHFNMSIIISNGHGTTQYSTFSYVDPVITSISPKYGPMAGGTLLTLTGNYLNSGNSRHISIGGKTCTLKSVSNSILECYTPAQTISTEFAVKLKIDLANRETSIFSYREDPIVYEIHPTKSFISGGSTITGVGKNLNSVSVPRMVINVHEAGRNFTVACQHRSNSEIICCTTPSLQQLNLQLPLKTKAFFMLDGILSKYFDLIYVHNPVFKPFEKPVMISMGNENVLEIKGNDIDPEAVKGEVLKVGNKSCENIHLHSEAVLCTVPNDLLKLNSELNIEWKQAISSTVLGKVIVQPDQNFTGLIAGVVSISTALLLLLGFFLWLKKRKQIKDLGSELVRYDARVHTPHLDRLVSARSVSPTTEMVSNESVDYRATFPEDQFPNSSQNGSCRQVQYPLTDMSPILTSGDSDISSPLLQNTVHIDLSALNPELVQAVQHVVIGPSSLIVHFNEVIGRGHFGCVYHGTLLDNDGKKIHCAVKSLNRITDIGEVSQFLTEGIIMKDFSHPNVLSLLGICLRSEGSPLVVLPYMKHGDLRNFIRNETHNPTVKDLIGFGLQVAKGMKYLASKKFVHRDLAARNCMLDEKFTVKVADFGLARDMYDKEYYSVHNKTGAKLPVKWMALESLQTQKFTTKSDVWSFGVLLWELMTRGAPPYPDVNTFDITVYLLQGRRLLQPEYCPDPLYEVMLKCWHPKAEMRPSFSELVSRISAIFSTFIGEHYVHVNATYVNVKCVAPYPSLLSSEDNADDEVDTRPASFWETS
Protocol: The c-Met enzymes and the Z’-LYTE Kinase Kit were purchased from Invitrogen. The tested compounds were used in concentrations of 0.001 to 10 mM. Briefly, 1 μL of an inhibitor or 5% DMSO, 2 μL of enzyme, and 2 μL of substrate/ATP mix were added to a 384-well low volume plate L and incubated at room temperature for 60 min. Then, 5 μL of ADP-Glo™ Reagent was added, and the mixture was incubated at room temperature for 40 min. Finally, 10 μL of Kinase Detection Reagent was added, and the mixture was incubated at room temperature for 30 min. The plate was measured on a multifunction microplate reader (Molecular Devices, Flex Station 3), and the luminescence was recorded (integration time 0.5–1 s). Curve fitting and data presentations were performed using Graph Pad Prism version 5.0 (GraphPad Inc., La Jolla, CA, USA). Every experiment was repeated at least three times.

[7] = tested on: hepatic carcinoma 97H cells; test: Cell cycle analysis by flow cytometry (PI staining); format: cell-based, human
Protocol: 97H cells were seeded in 6-well plates (3 × 10^5 cells/well) and incubated in the presence or absence of compound 31e at the indicated concentrations for 24 h. Then, cells were harvested by centrifugation and fixed in 70% ice-cold ethanol overnight. The ethanol was removed the next day, and then the cells were resuspended in the ice-cold PBS and treated with RNAse A (Keygen Biotech, Nanjing, China) at 37 °C for 30 min, followed by incubation with the DNA staining solution propidium iodide (PI) (Keygen Biotech, Nanjing, China) at 4 °C for 30 min. About 10,000 events were detected by flow cytometry (Epics XL, Beckman Coulter, Fullerton, CA, USA) at 488 nm. The data regarding the number of cells in different phases of the cell cycle were analyzed by EXPO32 ADC analysis software (Beckman Coulter, Fullerton, CA, USA).
Figure 3 Effect of 31e on cell cycle progression. (A) 97H cells (3 × 10^5 cells/sample) were treated with increasing concentrations of 31e for 24 h, cells were harvested, fixed with 70% ethanol, and stained with propidium iodide (PI). The cellular DNA content was then determined by flow cytometry analysis. (B) Quantitative analysis of the percentage of cells in each cell cycle phase was analyzed by EXPO32 ADC analysis software.

[8] = tested on: hepatic carcinoma 97H cells; test: Anti-cell-migration study; format: cell-based, human; conditions: 36 h
Protocol: 97H cells were plated in a 6-well culture dish at 5 × 10^4 cells/dish and grown for 24 h, and the non-migrated cells were scraped off the upper surface of the membrane with a 10 μL pipette. The medium was then replaced with 10% serum DMEM medium and treated with compound 31e at the indicated concentrations for another 36 h. After washing with phosphate buffer solution (PBS), the cell images were immediately detected by a Zeiss LSM 570 laser scanning confocal microscope (Carl Zeiss, Jena, Germany).
Figure 4 Effect of 31e on the migration of hepatic carcinoma 97H cells. Hepatic carcinoma 97H cells (50 × 10^4 cells) suspended in free serum Dulbecco’s Modified Eagle Medium (DMEM) containing 31e for 36 h were photographed under a phase contrast microscopy (magnification: 4 × objective). All results were expressed as the mean ± SD of at least three independent experiments.

c-Met phosphorylation = test: Western blot, phosphorylation of c-Met in 97H cells; format: cell-based, human
Protocol: (§1) 97H cells seeded in 60-mm dishes at a density of 5 × 10^5 cells/well were incubated with or without compound 31e at the indicated concentrations for 4 h. After incubation, the cells were washed twice with ice-cold PBS, and then lysed in RIPA lysis buffer (Radio Immunoprecipitation Assay) containing 150 mM NaCl, 50 mM Tris (pH 7.4), 1% (w/v) sodium deoxycholate, 1% (v/v) Triton X-100, 0.1% (w/v) SDS, and 1 mM EDTA (ethylenediaminetetraacetic acid) (Beyotime, Shanghai, China). The lysates were incubated at 0 °C for 30 min, and vortexed every 10 min intermittently, then the total proteins were harvested by centrifuging at 12,500 g for 15 min. The protein concentrations were determined by a BCA (bicinchoninic acid) Protein Assay Kit (Thermo Fisher Scientific, Rockford, IL, USA), and then the protein extracts were reconstituted in loading buffer containing 62 mM Tris-HCl, 2% SDS (sodium dodecyl sulfate), 10% glycerol, and 5% β-mercaptoethanol (Beyotime, Shanghai, China), and boiled at 100 °C for 3 min. An equal amount of the proteins (40 μg) was separated by 8%–12% sodium dodecyl sulphate-polyacrylamide gel electrophoresis (SDS-PAGE) and were transferred to nitrocellulose membranes (Amersham Biosciences, Little Chalfont, Buckinghamshire, UK). After blocking with 5% non-fat dried milk in TBS containing 1% Tween-20 for 90 min at room temperature, the membranes were incubated overnight with specific primary antibodies (Abcam, London, England) at 4 °C. After three washes in TBST, the membranes were incubated with the appropriate HRP-conjugated (Horseradish Peroxidase-conjugated) secondary antibodies at room temperature for 2 h. The blots were developed with enhanced chemiluminescence (Pierce, Rockford, IL, USA) and detected by an LAS4000 imager (GE Healthcare, Waukesha, WI, USA).
(§2) Figure 5 Compound 31e inhibits c-Met phosphorylation and downstream signaling in cancer cell lines. Cells treated with compound 31e for 1 h or 2 h were then lysed and subjected to Western blot analysis.

Akt phosphorylation = test: Western blot, phosphorylation of Akt in 97H cells; format: cell-based, human
Protocol: as §1, §2

[9] = Homo sapiens, 97H cells, MTT, 48 h, read-out: IC50 of Against 97H cells
[10] = same concentration, 2 h versus 1 h

Work on `CN1CCC(COc2cnc(-c3cccc(Cn4nc(-c5cccc(C#N)c5)ccc4=O)c3)nc2)CC1` [Tepotinib, reference compound] yielded an IC50 ([1]; Homo sapiens, read-out: IC50 of Against 97H cells) of 0.013 ± 0.008 µM, an IC50 ([2]; PC-9, 48 h) of 8.105 ± 0.012 µM and an IC50 ([3]; HeLa) of 11.2 ± 0.32 µM. It also gave an IC50 ([4]; SJSA-1, 48 h) of 12.2 ± 0.35 µM, an IC50 [5] of 10.3 ± 0.46 µM and an IC50 [6] of 9.44 ± 0.15 µM.
With `CC(c1cccc(-c2ncc(OCC3CCN(C)CC3)cn2)c1)n1cc(-c2cccc(C#N)c2)cnc1=O` (stereo not shown) [Compound 31e, 5-(3-cyanophenyl)-1-(1-(3-(5-((1-methylpiperidin-4-yl)methoxy)pyrimidin-2-yl)phenyl)ethyl)pyrimidin-2(1H)-one] the IC50 [1, 9] was 0.026 µM, the IC50 ([1]; Homo sapiens, 97H cells, MTT, 48 h, read-out: IC50 value, 97H cells) was 0.026 µM and the IC50 ([2]; PC-9, Pc9 cells, MTT, 48 h) was 42.9 ± 0.13 µM. The IC50 ([3]; Hela cells, MTT) was over 50 µM, the IC50 ([4]; SJSA-1, SJSA1 cells, MTT, 48 h) was over 50 µM and the IC50 ([5]; LO2 normal cells, MTT) was over 50 µM. The IC50 ([6]; HLF normal cells, MTT) was over 50 µM, the IC50 (c-Met enzyme) was 0.032 ± 0.06 µM and the “population of cells in the G1 phase” value ([7]; 10 nM, 24 h (vehicle DMSO 70.42%)) was 83.84%. The “population of cells in the G1 phase” value ([7]; 100 nM, 24 h) was 90.88%, the “population of cells in the G2/M phase” value ([7]; 100 nM, 24 h) was 5.78% and the inhibition of migration ([8]; 10 nM) was “moderate inhibition of migration”. For the same compound, the inhibition of migration ([8]; 50 nM) was “significantly suppressed”, the inhibition of migration ([8]; 100 nM) was “completely suppressed” and the “phosphorylation of c-Met” value (c-Met phosphorylation; 100 nM, 1 h) was “completely inhibited”. The “phosphorylation level of c-Met” value (c-Met phosphorylation; 10 or 50 nM, 1 h) was “suppressed in a dose-dependent manner”, the “inhibition of c-Met phosphorylation” value (c-Met phosphorylation; [10]) was “more obvious” and the “phosphorylation of Akt” value (Akt phosphorylation; 100 nM, 1 h) was “completely inhibited”. For the same compound, the “phosphorylation level of Akt” value (Akt phosphorylation; 10 or 50 nM, 1 h) was “suppressed in a dose-dependent manner”, the “inhibition of Akt phosphorylation” value (Akt phosphorylation; [10]) was “more obvious” and the melting point was 98.2 to 99.9 °C.
With `CC(c1cccc(-c2ncc(OCCN(C)C)cn2)c1)n1cc(-c2cccc(C#N)c2)cnc1=O` (stereo not shown) [Compound 31d, 5-(3-cyanophenyl)-1-(1-(3-(5-(2-(dimethylamino)ethoxy)pyrimidin-2-yl)phenyl)ethyl)pyrimidin-2(1H)-one] the IC50 [1, 9] was 0.196 ± 0.056 µM and the melting point was 53.3 to 55 °C.
With `CN(C)CCCSc1cnc(-c2cccc(Cn3cc(-c4cccc(C#N)c4)cc(F)c3=O)c2)nc1` [Compound 36a, 5-(3-cyanophenyl)-1-(3-(5-((3-(dimethylamino)propyl)thio)pyrimidin-2-yl)benzyl)-3-fluoropyridin-2(1H)-one] the IC50 [1, 9] was 0.149 ± 0.035 µM and the melting point was 116.3 to 117.9 °C.
In the case of `CN(C)CCCSc1cnc(-c2cccc(Cn3cc(-c4cccc(C#N)c4)ncc3=O)c2)nc1` [Compound 11a, 5-(3-cyanophenyl)-1-(3-(5-((3-(dimethylamino)propyl)thio)pyrimidin-2-yl)benzyl)pyrazin-2(1H)-one], the IC50 ([1]; 97H cells, MTT, 48 h, read-out: IC50 of Against 97H cells) is reported as 9.81 ± 0.79 µM, the IC50 [1, 9] is reported as 9.8 µM and the melting point is reported as 106.3 to 107.9 °C.
